Results as given in PMC6130518, “Investigation of the effective components of the flowers of Trollius chinensis from the perspectives of intestinal bacterial transformation and intestinal absorption” (Pharmaceutical Biology, 2017).
Entries after “also recorded” stand apart in the source; their conditions may differ. Like-named read-outs stand apart in the source and are kept apart here.

How the values were obtained:
[1] = Transport experiment with Caco-2 cell monolayers; conditions: human, Caco-2, Papp, Caco-2 cell monolayers; for Papp at 180 min, 10 mg/mL: extract 10 mg/mL; for Papp at 180 min, 20 mg/mL: extract 20 mg/mL; for Papp at 180 min, 30 mg/mL: extract 30 mg/mL
Protocol: (§1) The Caco-2 cells were cultured in the culture medium consisting of Dulbecco’s Modified Eagle Medium (DMEM, Gibco Inc., Grand Island, CA)-fetal bovine serum (FBS, Gibco Inc., Grand Island, CA)-nonessential amino acids (NEAA, Corning Costar, Cambridge, MA)-‘penicillin-streptomycin’ (Corning Costar, Cambridge, MA) (100:10:1:1, v/v/v/v) in 25 cm^2 flasks, which were incubated in 5% CO2 and constant temperature (37 °C) and humidity in the incubator. The culture medium was replaced every 2 or 3 days, and the cells were split 1:2 or 1:3 to conduct passage when they reached 80% confluence.
(§2) About 1.5 mL of the culture medium was added into the basal (BL) side of each well of the 12-well Transwell plates (insert diameter 12 mm, pore size 3.0 μm, membrane growth area 1.12 cm^2, Corning Costar, Cambridge, MA), and 0.5 mL of the Caco-2 cell suspension at the density of 2.0 × 10^5 cells/mL was seeded into the apical (AP) side of each insert. The cells were incubated in 5% CO2 and constant temperature (37 °C) and humidity in the incubator. The culture medium in both AP and BL sides was replaced every other day in the first week, then that in AP side was replaced every day and that in BL side was replaced every other day. The cells would differentiate and form a confluent monolayer. The integrity and viability of the cell monolayers were evaluated by measuring transepithelial electrical resistance (TEER) values in the culture medium at 37 °C using a Millicell®-ERS system (Millipore Corp., Bedford, MA), and only the inserts with the TEER above 600 Ω/cm^2 on day 21 were selected to perform the transport experiment.
(§3) About 200 μL of the solution in the receiving chambers was collected at 30, 60, 90, 120, 150, and 180 min, respectively, and then the same volume of HBSS was added. All samples were stored at −20 °C and filtered through a 0.45 μm membrane filter for HPLC analysis.
(§4) The HPLC conditions used for the analysis of the intestinal bacterial transformed AEOF before and after transport experiment was the same as above.
(§5) The transport percentage (%) was calculated using the formula transport percentage (%) = dQ/(C0 × V) × 100, wherein, V (mL) represented the volume of the donor compartment.

[2] = test system: Caco-2 cell monolayers; assay: Transport experiment with Caco-2 cell monolayers; conditions: for transport percentage: Caco-2 cell monolayers; for After transported with Caco-2 cell monolayers: intestinal bacterial transformed AEOF
Protocol: as §1, §2, §3, §4, §5

[3] = test system: activated intestinal bacteria; assay: Intestinal bacterial transformation of AEOF; format: in vitro ADME, human; conditions: for After transformed by intestinal bacteria / Before transformed by intestinal bacteria: content in the extract; for transformation by intestinal bacteria (in words): in AEOF 15.0, 30.0, 60.0 mg/mL, up to 72 h, single person derived- or multiple people-derived intestinal bacteria
Protocol: Each 3 g of fresh feces from 3 healthy men and 3 healthy women of 23–25 years old was suspended in 200 mL of general anaerobic medium (GAM, including L-cystine hydrochloride, soluble starch, pepsin, tryptone, peptone, soy peptone, serum powder, yeast extract, beef extract, and beef liver extract powder purchased from Beijing Aoboxing Biotechnology Co., Ltd, Beijing, China) broth prepared as per a literature (Yang & Xu [2011]), respectively, and cultured in an anaerobic incubator (Shanghai Cimomedical Appliance Co., Ltd., Shanghai, China) at 37 °C for 24 h (Tsuchihashi et al. [2009]). […] Each 100 μL of the activated intestinal bacteria from the 6 volunteers were added into 11.4 mL of GAM, mixed adequately, and incubated in the same conditions as previously to obtain the mixture of activated intestinal bacteria. About 0.4513, 0.9026, and 1.8052 g of AEOF were dissolved in 30 mL of GAM on a super clean bench (Beijing Great Wall Air Purification Co. Ltd., Beijing, China), respectively, to generate the experimental groups. Then, the triplicate GAM containing AEOF was divided into 24 screw-cap test tubes, and each screw-cap test tube had 3 mL of the GAM and 100 μL of the activated intestinal bacteria and the mixture of activated intestinal bacteria, respectively. They were incubated under the same condition, and the test tubes of each concentration in triplicate were removed from the anaerobic incubator at 0, 2, 4, 6, 12, 24, 48, and 72 h. About 100 μL of the bacterial suspension was replaced with GAM to obtain the control group. The GAM absent of the AEOF was used as the blank group. […] About 300 μL of the supernatant was collected, filtered through a 0.45 μm membrane filter, and stored at −20 °C before HPLC analysis.
The HPLC analysis was performed using a Waters 1500 series (Waters Business Operations, Milford, MA) equipped with a 1525 binary HPLC pump, an on-line degasser, a manual injector and a 2489 UV/Visible detector. […] The temperature was set at 35 °C and the UV detecting wavelengths were 254 and 365 nm. The mobile phase consisted of acetonitrile (HPLC grade, Fisher Co., Pittsburgh, PA) (A) and 1.0% acetic acid (Beijing Chemical Works, Beijing, China) in purified water (v/v) (B), and the gradient elution program was as follows: 5–10% A (0–5 min), 10–20% A (5–10 min), 20–25% A (10–22 min), 25–40% A (22–35 min), 40–50% A (35–40 min), and 50–5% A (40–42 min) at a flow rate of 1.0 mL/min. The volume injected was 5 μL.

[4] = previous study, cited from earlier work
[5] = Absorption experiment with everted gut sacs; conditions: Sprague-Dawley, rat
[6] = test system: everted gut sacs (jejunum); assay: Absorption experiment with everted gut sacs; conditions: for transport percentage: Everted gut sacs, AP→BL; for After transported with everted gut sacs: intestinal bacterial transformed AEOF
[7] = first of three lines per compound (lowest concentration; 10, 20, 30 mg/mL)
[8] = second of three lines per compound (middle concentration, not given)
[9] = third of three lines per compound (highest concentration, not given)
[10] = first of three lines per compound (lowest extract concentration)
[11] = first of three lines per compound (lowest extract concentration; AEOF 15, 30, 60 mg/mL)
[12] = second of three lines per compound (middle extract concentration, not given)
[13] = third of three lines per compound (highest extract concentration, not given)
[14] = ref Liu et al. [2014], Wu et al. [2014]

Row | SMILES | Papp at 180 min, 10 mg/mL ([1]; AP→BL) | Papp at 180 min, 10 mg/mL ([1]; BL→AP) | Papp at 180 min, 20 mg/mL ([1]; AP→BL) | Papp at 180 min, 20 mg/mL ([1]; BL→AP) | Papp at 180 min, 30 mg/mL ([1]; AP→BL) | Papp at 180 min, 30 mg/mL ([1]; BL→AP) | transport percentage ([2]; extract 10 mg/mL, AP→BL) | transport percentage ([2]; extract 10 mg/mL, BL→AP) | transport percentage ([2]; extract 20 mg/mL, AP→BL) | transport percentage ([2]; extract 20 mg/mL, BL→AP) | transport percentage ([2]; extract 30 mg/mL, AP→BL) | transport percentage ([2]; extract 30 mg/mL, BL→AP) | After transported with Caco-2 cell monolayers [2, 7] | After transported with Caco-2 cell monolayers [2, 8] | After transported with Caco-2 cell monolayers [2, 9] | After transformed by intestinal bacteria [3, 10] | Before transformed by intestinal bacteria [3, 11] | After transformed by intestinal bacteria [3, 12] | Before transformed by intestinal bacteria [3, 12] | After transformed by intestinal bacteria [3, 13] | also measured
1 | COc1cc(C(=O)O)cc(CC=C(C)C)c1O [proglobeflowery acid] | 105 ± 4 ×10⁻⁶ cm/s | 223 ± 16 ×10⁻⁶ cm/s | 123 ± 26 ×10⁻⁶ cm/s | 142 ± 5 ×10⁻⁶ cm/s | 181 ± 22 ×10⁻⁶ cm/s | 105 ± 4 ×10⁻⁶ cm/s | 127.39% | 89.93% | 148.57% | 57.32% | 219.09% | 42.47% | 11.11 µg/mL | 17.18 µg/mL | 23.46 µg/mL | 32.40 µg/mL | 2.55 µg/mL | 67.09 µg/mL | 4.78 µg/mL | 134.85 µg/mL | Before transformed by intestinal bacteria [3, 13]: 6.67 µg/mL; transformation by intestinal bacteria (in words) [3]: not transformed; also recorded: not changed; absorption mechanism [4, 14]: mainly through passive diffusion; Papp at 180 min, 10 mg/mL [5]: 450 ± 11 ×10⁻⁶ cm/s; Papp at 180 min, 20 mg/mL [5]: 534 ± 14 ×10⁻⁶ cm/s; Papp at 180 min, 30 mg/mL [5]: 586 ± 8 ×10⁻⁶ cm/s; transport percentage ([6]; extract 10 mg/mL): 9.60%; transport percentage ([6]; extract 20 mg/mL): 10.58%; transport percentage ([6]; extract 30 mg/mL): 11.61%; After transported with everted gut sacs [6, 7]: 1.95 µg/mL; After transported with everted gut sacs [6, 8]: 4.95 µg/mL; After transported with everted gut sacs [6, 9]: 7.74 µg/mL
2 | O=C1CC[C@H]2c3cc(O)c(O)cc3CCN12 [trolline] | 112 ± 7 ×10⁻⁶ cm/s | 231 ± 7 ×10⁻⁶ cm/s | 127 ± 12 ×10⁻⁶ cm/s | 194 ± 2 ×10⁻⁶ cm/s | 107 ± 6 ×10⁻⁶ cm/s | 184 ± 11 ×10⁻⁶ cm/s | 135.43% | 93.13% | 153.03% | 78.21% | 130.00% | 74.30% | 8.10 µg/mL | 13.59 µg/mL | 19.15 µg/mL | 22.37 µg/mL | 22.80 µg/mL | 36.28 µg/mL | 35.96 µg/mL | 71.00 µg/mL | Before transformed by intestinal bacteria [3, 13]: 73.23 µg/mL; transformation by intestinal bacteria (in words) [3]: not transformed; also recorded: not changed; absorption mechanism [4, 14]: an associative mechanism including both active and passive transports; Papp at 180 min, 10 mg/mL [5]: 138 ± 1 ×10⁻⁶ cm/s; Papp at 180 min, 20 mg/mL [5]: 107 ± 5 ×10⁻⁶ cm/s; Papp at 180 min, 30 mg/mL [5]: 151 ± 4 ×10⁻⁶ cm/s; transport percentage ([6]; extract 10 mg/mL): 29.42%; transport percentage ([6]; extract 20 mg/mL): 20.32%; transport percentage ([6]; extract 30 mg/mL): 30.00%; After transported with everted gut sacs [6, 7]: 4.33 µg/mL; After transported with everted gut sacs [6, 8]: 6.97 µg/mL; After transported with everted gut sacs [6, 9]: 14.76 µg/mL
3 | COc1ccc(C(=O)O)cc1OC [veratric acid] | 104 ± 5 ×10⁻⁶ cm/s | 236 ± 5 ×10⁻⁶ cm/s | 105 ± 15 ×10⁻⁶ cm/s | 210 ± 4 ×10⁻⁶ cm/s | 109 ± 4 ×10⁻⁶ cm/s | 199 ± 4 ×10⁻⁶ cm/s | 109.67% | 95.04% | 127.58% | 84.75% | 131.58% | 80.33% | 0.92 µg/mL | 1.62 µg/mL | 2.79 µg/mL | 3.22 µg/mL | 2.81 µg/mL | 7.44 µg/mL | 6.10 µg/mL | 12.78 µg/mL | Before transformed by intestinal bacteria [3, 13]: 13.39 µg/mL; transformation by intestinal bacteria (in words) [3]: not transformed; also recorded: not changed; absorption mechanism [4, 14]: mainly through passive diffusion; Papp at 180 min, 10 mg/mL [5]: 127 ± 4 ×10⁻⁶ cm/s; Papp at 180 min, 20 mg/mL [5]: 111 ± 7 ×10⁻⁶ cm/s; Papp at 180 min, 30 mg/mL [5]: 142 ± 3 ×10⁻⁶ cm/s; transport percentage ([6]; extract 10 mg/mL): 27.04%; transport percentage ([6]; extract 20 mg/mL): 21.02%; transport percentage ([6]; extract 30 mg/mL): 28.12%; After transported with everted gut sacs [6, 7]: 0.59 µg/mL; After transported with everted gut sacs [6, 8]: 1.64 µg/mL; After transported with everted gut sacs [6, 9]: 2.02 µg/mL
4 | O=c1cc(-c2ccc(O)cc2)oc2c([C@@H]3O[C@H](CO)[C@@H](O)[C@H](O)[C@H]3O)c(O)cc(O)c12 [vitexin] | 39.6 ± 0.5 ×10⁻⁶ cm/s | 28.3 ± 2.7 ×10⁻⁶ cm/s | 13.6 ± 1.5 ×10⁻⁶ cm/s | 16.4 ± 0.5 ×10⁻⁶ cm/s | 33.8 ± 2.8 ×10⁻⁶ cm/s | 21.6 ± 0.5 ×10⁻⁶ cm/s | 47.97% | 11.43% | 16.41% | 6.61% | 40.90% | 8.74% | 0.19 µg/mL | 0.23 µg/mL | 0.39 µg/mL | 3.10 µg/mL | 2.98 µg/mL | 5.70 µg/mL | 5.11 µg/mL | 11.19 µg/mL | Before transformed by intestinal bacteria [3, 13]: 11.04 µg/mL; transformation by intestinal bacteria (in words) [3]: not transformed; also recorded: not changed; absorption mechanism ([4]; ref Liu et al. [2015]): transporter mediated efflux in addition to passive diffusion; Papp at 180 min, 10 mg/mL [5]: 26 ± 2.8 ×10⁻⁶ cm/s; Papp at 180 min, 20 mg/mL [5]: 15.5 ± 1.1 ×10⁻⁶ cm/s; Papp at 180 min, 30 mg/mL [5]: 38.1 ± 5 ×10⁻⁶ cm/s; transport percentage ([6]; extract 10 mg/mL): 5.55%; transport percentage ([6]; extract 20 mg/mL): 2.94%; transport percentage ([6]; extract 30 mg/mL): 7.55%; After transported with everted gut sacs [6, 7]: 0.11 µg/mL; After transported with everted gut sacs [6, 8]: 0.14 µg/mL; After transported with everted gut sacs [6, 9]: 0.50 µg/mL
